From PubChem BioAssay (NCI)
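GI50 marks 50% less growth. TGI marks complete inhibition of growth.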

Columns and labels:
Assay in all cases: NCI anticancer screen, dose series, 384-well format
[1] = tested on: SF-268 CNS
[2] = tested on: UACC-62 melanoma
[3] = tested on: BT-549 breast
[4] = tested on: HCT-15 colon
[5] = tested on: A549 NSCLC
[6] = tested on: HOP-62 NSCLC
[7] = tested on: RXF 393 renal
[8] = tested on: SF-539 CNS
[9] = tested on: MCF7 breast
[10] = tested on: SF-295 CNS
[11] = tested on: DU-145 prostate
[12] = tested on: HOP-92 NSCLC
[13] = tested on: SK-MEL-5 melanoma
[14] = tested on: UO-31 renal
[15] = tested on: CCRF-CEM leukemia
[16] = tested on: SNB-75 CNS
[17] = tested on: T-47D breast
[18] = tested on: UACC-257 melanoma
[19] = tested on: COLO 205 colon
[20] = tested on: U251 glioblastoma
[21] = tested on: HL-60(TB) leukemia
[22] = tested on: KM12 colon
[23] = tested on: OVCAR-3 ovarian
[24] = tested on: TK-10 renal
[25] = tested on: NCI/ADR-RES ovarian
[26] = tested on: SNB-19 CNS
[27] = tested on: NCI-H460 NSCLC
[28] = tested on: MOLT-4 leukemia
[29] = tested on: SN12C renal
[30] = tested on: MALME-3M melanoma
[31] = tested on: LOX IMVI melanoma
[32] = tested on: HCC-2998 colon
[33] = tested on: SK-OV-3 ovarian
[34] = tested on: RPMI-8226 leukemia
[35] = tested on: HCT-116 colon
[36] = tested on: A498 renal
[37] = tested on: OVCAR-8 ovarian
[38] = tested on: MDA-MB-231 breast
[39] = tested on: SK-MEL-28 melanoma
[40] = tested on: EKVX NSCLC
[41] = tested on: OVCAR-5 ovarian
[42] = tested on: NCI-H23 lung
[43] = tested on: MDA-MB-468 breast
[44] = tested on: IGROV1 ovarian
[45] = tested on: HT29 colon
[46] = tested on: CAKI-1 renal
[47] = tested on: NCI-H522 lung
[48] = tested on: SW-620 colon
[49] = tested on: NCI-H322M lung
[50] = tested on: K-562 leukemia
[51] = tested on: HS 578T breast
[52] = tested on: OVCAR-4 ovarian
[53] = tested on: 786-0 renal
[54] = tested on: NCI-H226 lung
[55] = tested on: MDA-MB-435 melanoma
[56] = tested on: M14 melanoma
[57] = tested on: PC-3 prostate
[58] = tested on: ACHN renal

## C[C@H]1COCCN1c1cc(C2(S(=O)(=O)C3CC3)CC2)nc(-c2ccc(NC(=S)NCCO)cc2)n1
[1]
  GI50: < 10 nM
  TGI: 28.9 nM
[2]
  GI50: 15 nM
  TGI: 100 nM
[3]
  GI50: 16 nM
  TGI: 121 nM
[4]
  GI50: 126 nM
  TGI: 86300 nM
[5]
  GI50: 28.9 nM
  TGI: 1410 nM
[6]
  GI50: 39.1 nM
  TGI: 540 nM
[7]
  GI50: 25.9 nM
  TGI: 310 nM
[8]
  GI50: 29.7 nM
  TGI: 598 nM
[9]
  GI50: < 10 nM
  TGI: 5510 nM
[10]
  GI50: 34.4 nM
  TGI: 335 nM
[11]
  GI50: 59.1 nM
  TGI: 18800 nM
[12]
  GI50: 25.7 nM
  TGI: 601 nM
[13]
  GI50: 11.8 nM
  TGI: 58.5 nM
[14]
  GI50: 121 nM
  TGI: 14000 nM
[15]
  GI50: 20.6 nM
  TGI: 1630 nM
[16]
  GI50: < 10 nM
  TGI: 50.5 nM
[17]
  GI50: < 10 nM
  TGI: 17.9 nM
[18]
  GI50: 46.3 nM
  TGI: 827 nM
[19]
  GI50: 19.6 nM
  TGI: 3340 nM
[20]
  GI50: 57.2 nM
  TGI: 14900 nM
[21]
  GI50: 618 nM
  TGI: 15200 nM
[22]
  GI50: 27.8 nM
  TGI: 17600 nM
[23]
  GI50: 38 nM
  TGI: 6600 nM
[24]
  GI50: 92.6 nM
  TGI: 900 nM
[25]
  GI50: 6720 nM
  TGI: > 100000 nM
[26]
  GI50: 100 nM
  TGI: 50200 nM
[27]
  GI50: < 10 nM
  TGI: 11500 nM
[28]
  GI50: < 10 nM
  TGI: 1070 nM
[29]
  GI50: 18.4 nM
  TGI: 12200 nM
[30]
  GI50: < 10 nM
  TGI: 84.3 nM
[31]
  GI50: 27.6 nM
  TGI: 640 nM
[32]
  GI50: 98.6 nM
  TGI: 18600 nM
[33]
  GI50: 20.1 nM
  TGI: 626 nM
[34]
  GI50: 12 nM
  TGI: 85.3 nM
[35]
  GI50: 119 nM
  TGI: 16500 nM
[36]
  GI50: < 10 nM
  TGI: 53.1 nM
[37]
  GI50: 53.4 nM
  TGI: 12700 nM
[38]
  GI50: 34.2 nM
  TGI: > 100000 nM
[39]
  GI50: 26.2 nM
  TGI: 564 nM
[40]
  GI50: 40.2 nM
  TGI: 1570 nM
[41]
  GI50: 51.8 nM
  TGI: 7110 nM
[42]
  GI50: 83.1 nM
  TGI: 12500 nM
[43]
  GI50: < 10 nM
  TGI: 31.9 nM
[44]
  GI50: < 10 nM
  TGI: 41.9 nM
[45]
  GI50: 79.3 nM
  TGI: 15800 nM
[46]
  GI50: 17.8 nM
  TGI: 214 nM
[47]
  GI50: < 10 nM
  TGI: 6640 nM
[48]
  GI50: 130 nM
  TGI: 17800 nM
[49]
  GI50: 27.4 nM
  TGI: 15500 nM
[50]
  GI50: 41.6 nM
  TGI: 16100 nM
[51]
  GI50: < 10 nM
  TGI: 35.5 nM
[52]
  GI50: 31.8 nM
  TGI: 340 nM
[53]
  GI50: 50.8 nM
  TGI: 12600 nM
[54]
  GI50: 19.1 nM
  TGI: 101 nM
[55]
  GI50: 41.5 nM
  TGI: 3460 nM
[56]
  GI50: 20.7 nM
  TGI: 1830 nM
[57]
  GI50: 16.7 nM
  TGI: 4390 nM
[58]
  GI50: 55.1 nM
  TGI: 11800 nM
